Test results: patent US9399192B2, “Carbon dioxide absorber and carbon dioxide separation/recovery method using the absorber” (ASAHI KASEI KABUSHIKI KAISHA, priority 2011, dated 2016)
Like-named read-outs stand apart in the source and are kept apart here.

Columns and labels:
[1] = Evaluation of heat of reaction of aqueous amine solutions (C-80 reaction calorimeter, FIG. 9C); type: physicochemical; details: 30° C., per 1 mole of reacted CO2 at reacted amount 0.10 mol CO2/mol N
Procedure: * Evaluation of Heat of Reaction Heat of reaction was measured using the apparatus shown in FIG. 9C with the Model C-80 Reaction calorimeter (Setaram Inc.) 936. A gas circulation normal pressure type cell (stainless steel 31/1415) was used for the cell, and the gas inlet port and outlet port were connected as shown in FIG. 9C. 4 g aliquots of each aqueous amine compound solution were placed in the cell after adjusting to the same concentrations as those used in the aforementioned evaluation of reactivity ([…] in the case of monoamine compounds and […] in the case of diamine compounds) and the cell was then placed in the C-80 Reaction calorimeter. The cell temperature was adjusted to 30° C. and allowed to stabilize. 50 mL of carbon dioxide were injected into a gas syringe 930 from carbon dioxide supplied from a carbon dioxide cylinder 929 by closing a valve 932 followed by opening the valve 932. The reacted amount was then measured based on the change in internal pressure measured with a pressure gauge 933 while measuring the amount of heat generated with the C-80 Reaction calorimeter. The amount of heat generated and reacted amount were calculated in advance using a calibration curve of heat of compression and internal pressure determined in the absence of a sample.
(§1) Table 7 indicates a comparison of performance when used as an amine compound for a carbon dioxide absorber. Those parameters evaluated as indicators of performance consisted of absorbed amount at 30° C., absorbed amount at 90° C. and heat of reaction. Furthermore, the difference between the absorbed amount at 30° C. and the absorbed amount at 90° C. was taken to represent carbon dioxide desorption performance. Values for heat of reaction are shown in Table 7 after converting to heat of reaction (kJ/mol) per 1 mole of reacted carbon dioxide using a calibration curve obtained when the reacted amount of the amino groups of each amine compound and carbon dioxide reached 0.10 mol CO2/mol N.

[2] = type: physicochemical
Excerpt: Thus, Compound A is extremely useful since it is able to reduce volatilization loss when contacting a gas. In addition, the weak basicity per amino group is attributable to the diamine structure. […]. Thus, Compound A is extremely useful since it allows a wide range of materials to be selected for use in the reactor.

[3] = Evaluation of reactivity of aqueous amine solutions with carbon dioxide; type: physicochemical; details: for Absorbed amount at 30° C. (moles CO2/moles N) / Absorbed amount at 90° C. (moles CO2/moles N): aqueous amine 1.81 mol/L (monoamine) or 0.91 mol/L (diamine), CO2 300 mL/min 15 minutes; for CO2 desorption performance (moles CO2/moles N): difference between absorbed amount at 30° C. and at 90° C.
Procedure: Amine compounds were mixed with water to prepare aqueous amine solutions. At this time, the concentration of monoamine compounds having one amino group was adjusted to 1.81 mol/L, while the concentration of diamine compounds having two amino groups was adjusted to 0.91 mol/L. Carbon dioxide gas was blown into 25 mL aliquots of each aqueous amine solution for 15 minutes at 300 mL/min to allow the amine compound to react with the carbon dioxide. The reactions were carried out at temperatures of 30° C. and 90° C., and the reacted amount was calculated from element ratios of C and N before and after the reaction as measured with the Model TOC-VCP and Model TNM-1 Total Organic Carbon Analyzers (Shimadzu Corp.).
The absorbed amounts are represented by the number of moles of carbon dioxide reacting with respect to 1 mole of amino group, or in other words, moles CO2/moles N.
as §1

[4] = pH 0.4
physchem = details: aqueous solution
[5] = pKb of amine compounds / pKa of weakly acidic compounds calculated from pH of aqueous solution; details: amine compound, aqueous solution at 30° C., calculated from pH of 0.4 M aqueous solution

| SMILES | Heat of reaction [1] | Absorbed amount at 30° C. (moles CO2/moles N) [3] | Absorbed amount at 90° C. (moles CO2/moles N) [3] | CO2 desorption performance (moles CO2/moles N) [3] | pKb [5] | also measured |
| --- | --- | --- | --- | --- | --- | --- |
| OCCNCC(O)CNCCO [BHEP, 1,3-bis(2-hydroxyethylamino)propan-2-ol] | 16.1 kcal/mol | 0.516 moles CO2/moles N | 0.214 moles CO2/moles N | 0.302 moles CO2/moles N |  | vapor pressure [2]: 0.04 mPa; pKb [4]: 6.3 |
| CC(O)CNCC(O)CNCC(C)O (centres unmarked) [BHPP, 1,3-bis(2-hydroxypropylamino)propan-2-ol] | 16.3 kcal/mol | 0.498 moles CO2/moles N | 0.213 moles CO2/moles N | 0.285 moles CO2/moles N |  |  |
| OB(O)O [Boric acid] |  |  |  |  |  | pKa (physchem): 9.2 |
| NCC(O)CN [DAP, 1,3-diaminopropan-2-ol] | 20.9 kcal/mol | 0.601 moles CO2/moles N | 0.409 moles CO2/moles N | 0.192 moles CO2/moles N |  |  |
| OCCNCCO [DEA, Diethanolamine] |  |  |  |  |  | pKb [4]: 5.4 |
| CCNCCO [EAE, 2-ethylaminoethanol] | 20.8 kcal/mol | 0.631 moles CO2/moles N | 0.279 moles CO2/moles N | 0.352 moles CO2/moles N | 4.4 |  |
| NC(CO)CO [Example 2A13PD, 2-amino-1,3-propanediol] |  |  |  |  | 5.6 |  |
| CC(O)CNCC(O)CNCCO (centres unmarked) [HEHPP, 1-(2-hydroxyethylamino)-3-(2-hydroxypropylamino)propan-2-ol] | 16.1 kcal/mol | 0.506 moles CO2/moles N | 0.213 moles CO2/moles N | 0.293 moles CO2/moles N |  |  |
| CC(C)NCCO [IPAE, 2-isopropylaminoethanol] |  |  |  |  | 4.1 |  |
| NCCO [MEA, Monoethanolamine] | 21.6 kcal/mol | 0.614 moles CO2/moles N | 0.400 moles CO2/moles N | 0.214 moles CO2/moles N |  | pKb [4]: 4.7 |
| C1CNCCN1 [Pz, piperazine] |  |  |  |  | 4.8 |  |
| CCOB(OCC)OCC [TEB, Triethylborate] |  |  |  |  |  | pKa (physchem): 8.1 |
| COB(OC)OC [TMB, Trimethylborate] |  |  |  |  |  | pKa (physchem): 8.7 |
